From patent US20250313535A1, “ALPHA 4 BETA 7 INTEGRIN MODULATORS AND USES THEREOF” (DICE MOLECULES SV, INC., priority 2022, published 2025)
Like-named read-outs stand apart in the source and are kept apart here.

Experiments:
α4β7 integrin = α4β7 integrin (Homo sapiens (Human), UniProt P13612+P26010); experiment: Integrin Adhesion Assay: Protocol 4 (MAdCAM-coated plate, RPMI-8866 cells with stable LOF mutation of the ITGB1 gene); type: cell-based
Procedure, shortened: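 RPMI-8866 cells with CRISPR/Cas9 knockout of ITGB1 (2×10^6/mL) were added to MAdCAM-coated wells with compound (1% DMSO) in HEPES/NaCl buffer with 1 mM MnCl2, 0.1 mM CaCl2 and 1% BSA, then incubated 1 h at 37 °C. After four washes, adherent cells were quantified by CellTiter-Glo luminescence. Percent inhibition versus DMSO and control compound was fitted to 4-parameter curves.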

α4β1 integrin = α4β1 integrin (Homo sapiens (Human), UniProt P05556+P13612); experiment: Integrin Adhesion Assay: Protocol 5 (VCAM-coated plate, RPMI-8866 cells with stable LOF mutation of the ITGB7 gene); type: cell-based
Procedure, shortened: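 RPMI-8866 B cells with CRISPR/Cas9 ITGB7 knockout (clonal, verified by flow cytometry) adhered to VCAM-coated wells for 1 h at 37° C in HEPES/NaCl buffer with 1 mM MnCl2, 0.1 mM CaCl2, 1% BSA, 1% DMSO. Bound cells quantified by CellTiter-Glo luminescence after washing; % inhibition versus DMSO and control, 4-parameter fit.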

[1] = RPMI-8866 cells with stable LOF mutation of the ITGB1 gene, read-out: Mean IC50 α4β7 KO^a
[2] = RPMI-8866 cells with stable LOF mutation of the ITGB7 gene, read-out: Mean IC50 α4β1 KO^b
[3] = Protocol 4, RPMI-8866 cells with LOF mutation of ITGB1, MAdCAM, read-out: Mean IC50 α4β7 KO
[4] = Protocol 5, RPMI-8866 cells with LOF mutation of ITGB7, VCAM, read-out: Mean IC50 α4β1 KO

Sequence of α4β7 integrin (P13612 34-1032): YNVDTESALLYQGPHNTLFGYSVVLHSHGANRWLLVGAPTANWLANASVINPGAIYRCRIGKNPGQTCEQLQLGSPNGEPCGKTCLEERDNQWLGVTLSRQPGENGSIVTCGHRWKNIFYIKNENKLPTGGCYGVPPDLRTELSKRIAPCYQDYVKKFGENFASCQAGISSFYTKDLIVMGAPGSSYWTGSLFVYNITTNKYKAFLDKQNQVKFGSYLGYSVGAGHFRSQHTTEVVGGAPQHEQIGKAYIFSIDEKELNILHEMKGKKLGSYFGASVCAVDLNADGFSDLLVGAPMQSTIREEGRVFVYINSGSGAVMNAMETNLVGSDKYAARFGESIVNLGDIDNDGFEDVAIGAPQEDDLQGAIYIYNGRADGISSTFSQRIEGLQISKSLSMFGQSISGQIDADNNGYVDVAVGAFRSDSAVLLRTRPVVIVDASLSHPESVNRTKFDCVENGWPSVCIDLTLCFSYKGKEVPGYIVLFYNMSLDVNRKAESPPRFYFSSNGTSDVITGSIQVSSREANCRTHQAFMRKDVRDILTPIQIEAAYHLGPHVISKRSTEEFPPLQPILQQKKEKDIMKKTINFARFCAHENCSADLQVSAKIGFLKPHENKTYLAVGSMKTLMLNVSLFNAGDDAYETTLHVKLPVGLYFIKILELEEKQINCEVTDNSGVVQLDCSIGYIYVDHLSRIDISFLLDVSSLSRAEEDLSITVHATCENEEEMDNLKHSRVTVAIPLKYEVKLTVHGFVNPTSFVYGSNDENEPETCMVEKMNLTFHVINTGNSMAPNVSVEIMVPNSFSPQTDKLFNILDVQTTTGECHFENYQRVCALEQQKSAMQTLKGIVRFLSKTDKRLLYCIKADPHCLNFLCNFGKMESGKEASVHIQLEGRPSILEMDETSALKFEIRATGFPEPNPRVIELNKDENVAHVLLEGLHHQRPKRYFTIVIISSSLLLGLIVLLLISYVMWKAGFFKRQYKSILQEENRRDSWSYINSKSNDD
Sequence of α4β7 integrin (P26010 20-798): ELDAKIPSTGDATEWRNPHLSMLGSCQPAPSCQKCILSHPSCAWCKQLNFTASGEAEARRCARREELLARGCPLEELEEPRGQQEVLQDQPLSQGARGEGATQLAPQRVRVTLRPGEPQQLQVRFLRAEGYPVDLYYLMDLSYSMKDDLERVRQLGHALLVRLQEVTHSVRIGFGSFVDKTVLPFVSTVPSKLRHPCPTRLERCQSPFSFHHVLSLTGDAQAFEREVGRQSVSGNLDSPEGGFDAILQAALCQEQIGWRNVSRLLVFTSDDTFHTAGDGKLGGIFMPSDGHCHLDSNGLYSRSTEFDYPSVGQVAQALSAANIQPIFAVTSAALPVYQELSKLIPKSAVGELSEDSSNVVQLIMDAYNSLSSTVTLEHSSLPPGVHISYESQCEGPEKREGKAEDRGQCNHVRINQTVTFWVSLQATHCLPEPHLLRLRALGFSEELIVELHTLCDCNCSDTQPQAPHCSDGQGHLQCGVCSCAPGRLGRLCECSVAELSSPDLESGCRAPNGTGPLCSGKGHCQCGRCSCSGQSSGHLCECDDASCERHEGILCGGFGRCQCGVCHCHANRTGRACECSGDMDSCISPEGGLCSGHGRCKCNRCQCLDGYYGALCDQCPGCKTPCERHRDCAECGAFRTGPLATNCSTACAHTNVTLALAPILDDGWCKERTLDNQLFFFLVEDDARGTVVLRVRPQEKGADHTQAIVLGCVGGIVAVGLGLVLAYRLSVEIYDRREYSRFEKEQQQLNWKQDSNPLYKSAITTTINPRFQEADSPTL
Sequence of α4β1 integrin (P13612 34-1032): as the sequence (P13612 34-1032) above
Sequence of α4β1 integrin (P05556 21-798): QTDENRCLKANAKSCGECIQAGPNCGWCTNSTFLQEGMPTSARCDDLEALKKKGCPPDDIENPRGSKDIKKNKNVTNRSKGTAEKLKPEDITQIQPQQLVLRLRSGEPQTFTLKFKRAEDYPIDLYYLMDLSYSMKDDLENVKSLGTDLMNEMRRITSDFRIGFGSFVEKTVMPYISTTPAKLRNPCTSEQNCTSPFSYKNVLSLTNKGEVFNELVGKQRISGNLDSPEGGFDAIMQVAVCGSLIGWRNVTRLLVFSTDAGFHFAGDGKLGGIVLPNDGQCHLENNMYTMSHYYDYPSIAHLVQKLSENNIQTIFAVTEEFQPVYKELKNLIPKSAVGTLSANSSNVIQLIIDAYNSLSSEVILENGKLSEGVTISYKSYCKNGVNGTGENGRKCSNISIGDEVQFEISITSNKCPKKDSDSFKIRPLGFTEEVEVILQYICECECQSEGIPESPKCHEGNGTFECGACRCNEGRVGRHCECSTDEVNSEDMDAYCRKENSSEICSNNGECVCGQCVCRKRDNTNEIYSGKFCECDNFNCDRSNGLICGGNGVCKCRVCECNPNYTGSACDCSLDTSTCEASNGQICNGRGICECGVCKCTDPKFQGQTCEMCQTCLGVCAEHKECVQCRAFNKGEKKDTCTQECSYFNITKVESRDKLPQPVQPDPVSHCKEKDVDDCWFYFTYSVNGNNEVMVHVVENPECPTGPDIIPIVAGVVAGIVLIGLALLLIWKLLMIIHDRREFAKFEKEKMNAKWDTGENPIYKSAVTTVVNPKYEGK

| Structure (SMILES) | IC50 (α4β7 integrin; [1]) [nM] | IC50 (α4β1 integrin; [2]) [nM] | IC50 (α4β7 integrin; [3]) [nM] | IC50 (α4β1 integrin; [4]) [nM] |
| --- | --- | --- | --- | --- |
| O=C(O)[C@H](Cc1cccc2c(-c3nccc4c(CN5CCC(F)(F)C5)cccc34)cccc12)NC(=O)C1(C(F)(F)F)CCN(C2COC2)CC1 [Compound 595] | < 10 | 100 to 1000 | – | – |
| COc1cc(CN2CCCCC2)cnc1-c1cccc2c(C[C@H](NC(=O)C3(C(F)(F)F)CCN(CC(F)(F)F)CC3)C(=O)O)cccc12 [Compound 800] | – | – | < 10 | > 1000 |
| COc1c2c(cc(C)c1-c1cccc3c(C[C@H](NC(=O)C4(C(F)(F)F)CCN(CC(F)(F)F)CC4)C(=O)O)cccc13)CCN(C)C2 [Compound 735] | – | – | < 10 | > 1000 |
| CN(C)Cc1ccc2c(-c3cccc4c(C[C@H](NC(=O)C5(C(F)(F)F)CCN(CC(F)(F)F)CC5)C(=O)O)cccc34)nccc2c1 [Compound 584] | 10 to 100 | > 1000 | – | – |
| COc1cc2c(c(C(F)(F)F)c1-c1cccc3c(C[C@H](NC(=O)C4(C(F)(F)F)CCN(CC(F)(F)F)CC4)C(=O)O)cccc13)CCN(CC(F)(F)F)C2 [Compound 673] | 10 to 100 | > 1000 | – | – |
| COc1ccc(CN2CCCC(C)C2)c(OC)c1-c1cccc2c(C[C@H](NC(=O)C3(C(F)(F)F)CCN(CC(F)(F)F)CC3)C(=O)O)cccc12 (stereo partly shown) [Compound 790] | – | – | < 10 | 100 to 1000 |
| COC(=O)[C@H](Cc1cccc2c(-c3c(OC)ccc(CN4C(C)CCC4C)c3OC)cccc12)NC(=O)c1c(C)cccc1F (stereo partly shown) [Compound 552] | < 10 | 100 to 1000 | – | – |
| COc1ccc(CN2CCCC(F)C2)c(C(F)(F)F)c1-c1cccc2c(C[C@H](NC(=O)c3c(C)cccc3F)C(=O)O)cccc12 (stereo partly shown) [Compound 572] | 10 to 100 | > 1000 | – | – |
| COc1ccc(CN2CCC2)c(OC)c1-c1cccc2c(C[C@H](NC(=O)c3c(C)cccc3F)C(=O)O)cccc12 [Compound 628] | < 10 | 100 to 1000 | – | – |
| Cc1cc(C2CCN(C)CC2)cnc1-c1cccc2c(C[C@H](NC(=O)C3(C(F)(F)F)CCN(CC(F)(F)F)CC3)C(=O)O)cccc12 [Compound 759] | – | – | < 10 | > 1000 |
| O=C(O)[C@H](Cc1cccc2c(-c3cc(CN4CCCC4)cc4ccncc34)cccc12)NC(=O)C1(C(F)(F)F)CCN(C2COC2)CC1 [Compound 620] | < 10 | > 1000 | – | – |
| COc1cccc(F)c1C(=O)N[C@@H](Cc1cccc2c(-c3c(OC)ccc(CN4CCCCC4)c3OC)cccc12)C(=O)O [Compound 647] | < 10 | 100 to 1000 | – | – |
| COc1ccc(CN2C[C@@H](C)O[C@@H](C)C2)c(OC)c1-c1cccc2c(C[C@H](NC(=O)c3c(C)cccc3F)C(=O)O)cccc12 [Compound 651] | < 10 | 100 to 1000 | – | – |
| COc1ccc(CCN(C)C)c(OC)c1-c1cccc2c(C[C@H](NC(=O)C3(C(F)(F)F)CCN(CC(F)(F)F)CC3)C(=O)O)cccc12 [Compound 468] | < 10 | 100 to 1000 | – | – |
| Cn1c(=O)c(-c2cccc3c(C[C@H](NC(=O)c4c(F)cccc4F)C(=O)O)cccc23)c(C(F)(F)F)c2cc(CCN3CCC3)ccc21 [Compound 709] | – | – | < 10 | > 1000 |
| O=C(O)[C@H](Cc1cccc2c(-c3ncc(CN4CCCCC4)c4ccccc34)cccc12)NC(=O)C1(C(F)(F)F)CCN(CC(F)(F)F)CC1 [Compound 787] | – | – | < 10 | > 1000 |
| COc1ccc(CN2CCC3(CCOC3)CC2)c(OC)c1-c1cccc2c(C[C@H](NC(=O)c3c(C)cccc3F)C(=O)O)cccc12 [Compound 655] | < 10 | > 1000 | – | – |
| COc1cccc(CN2CCCCC2)c1-c1cccc2c(C[C@H](NC(=O)c3c(F)cccc3Cl)C(=O)O)cccc12 [Compound 674] | < 10 | 100 to 1000 | – | – |
| Cn1c(=O)c(-c2cccc3c(C[C@H](NC(=O)c4c(F)cccc4F)C(=O)O)cccc23)c(C(F)(F)F)c2cc(CCN3CCCC3)ccc21 [Compound 710] | – | – | < 10 | 100 to 1000 |
| COc1cccc(CN2CCCCC2)c1-c1cccc2c(C[C@H](NC(=O)c3c(C)cc(C4CC(F)(F)C4)cc3F)C(=O)O)cccc12 [Compound 544] | < 10 | 100 to 1000 | – | – |
| COc1ccc(CN(C)C)c(OC)c1-c1cccc2c(C[C@H](NC(=O)c3c(C)cccc3CN3CCC(F)(F)CC3)C(=O)O)cccc12 [Compound 588] | 100 to 1000 | > 1000 | – | – |
| CC1OCCC1N1CCC(C(=O)N[C@@H](Cc2cccc3c(-c4c(C(F)(F)F)c5ccccc5n(C)c4=O)cccc23)C(=O)O)(C(F)(F)F)CC1 (stereo partly shown) [Compound 509] | < 10 | 100 to 1000 | – | – |
| COc1ccc(CN2CCC(c3ccccc3)CC2)c(OC)c1-c1cccc2c(C[C@H](NC(=O)C3(C(F)(F)F)CCN(CC(F)(F)F)CC3)C(=O)O)cccc12 [Compound 807] | – | – | < 10 | > 1000 |
| Cc1cc(C(F)(F)F)cc(F)c1C(=O)N[C@@H](Cc1cccc2c(-c3c(C(F)(F)F)c4cc(CN(C)C)ccc4n(C)c3=O)cccc12)C(=O)O [Compound 700] | – | – | 10 to 100 | > 1000 |
| CCc1cccc(F)c1C(=O)N[C@@H](Cc1cccc2c(-c3c(OC)ccc(CN4CCCCC4)c3OC)cccc12)C(=O)O [Compound 649] | < 10 | 100 to 1000 | – | – |
| CN(C)Cc1cccc2c(-c3cccc4c(C[C@H](NC(=O)C5(C(F)(F)F)CCN(CC(F)(F)F)CC5)C(=O)O)cccc34)nccc12 [Compound 421] | < 10 | > 1000 | – | – |

Further lines, results first:

| IC50 (α4β7 integrin; [1]) [nM] | IC50 (α4β1 integrin; [2]) [nM] | IC50 (α4β7 integrin; [3]) [nM] | IC50 (α4β1 integrin; [4]) [nM] | Structure (SMILES) |
| --- | --- | --- | --- | --- |
| – | – | 100 to 1000 | > 1000 | Cn1c(=O)c(-c2cccc3c(C[C@H](NC(=O)C4(C(F)(F)F)CCCN(CC5COC5)C4)C(=O)O)cccc23)c(C(F)(F)F)c2ccccc21 (stereo partly shown) [Compound 1049] |
| – | – | < 10 | 100 to 1000 | CC[C@H]1CCCN1Cc1cnc(-c2cccc3c(C[C@H](NC(=O)C4(C(F)(F)F)CCN(CC(F)F)CC4)C(=O)O)cccc23)c2ccccc12 [Compound 934] |
| – | – | < 10 | 100 to 1000 | COc1ccc(CN2CCC(C)(C)CC2)c(C(F)(F)F)c1-c1cccc2c(C[C@H](NC(=O)C3(C(F)(F)F)CCN(CC(F)(F)F)CC3)C(=O)O)cccc12 [Compound 819] |
| – | – | < 10 | > 1000 | COc1c(CN(C)C)ccc(Cl)c1-c1cccc2c(C[C@H](NC(=O)c3c(C)cccc3F)C(=O)O)cccc12 [Compound 1011] |
| – | – | 10 to 100 | > 1000 | Cn1c(=O)c(-c2cccc3c(C[C@H](NC(=O)C4(C)CCCN(C5COC5)CC4)C(=O)O)cccc23)c(C(F)(F)F)c2ccccc21 (stereo partly shown) [Compound 1050] |
| – | – | 10 to 100 | > 1000 | COc1cccc(CN2CCC(C(F)(F)F)CC2)c1-c1cccc2c(C[C@H](NC(=O)c3c(C)cccc3F)C(=O)O)cccc12 [Compound 1026] |
| – | – | 10 to 100 | > 1000 | O=C(O)[C@H](Cc1cccc2c(-c3ncc(CN4CC5CCC(C4)O5)c4ccccc34)cccc12)NC(=O)C1(C(F)(F)F)CCN(CC(F)(F)F)CC1 [Compound 872] |
| – | – | < 10 | 100 to 1000 | O=C(O)[C@H](Cc1cccc2c(-c3ncc(CN4CCN(C5CC5)CC4)cc3C3CC3)cccc12)NC(=O)C1(C(F)(F)F)CCN(CC(F)F)CC1 [Compound 952] |
| – | – | 100 to 1000 | > 1000 | COc1ccc(CN2CCC(F)(F)CC2)c(C(F)(F)F)c1-c1cccc2c(C[C@H](NC(=O)C3(C(F)(F)F)CCN(CC(F)(F)F)CC3)C(=O)O)cccc12 [Compound 822] |
| – | – | < 10 | > 1000 | CC1CCN(Cc2cnc(-c3cccc4c(C[C@H](NC(=O)C5(C(F)(F)F)CCN(CC(F)F)CC5)C(=O)O)cccc34)c3ccccc23)CCC1(F)F (stereo partly shown) [Compound 926] |
| – | – | < 10 | 100 to 1000 | CC1(C)CCCN(Cc2cnc(-c3cccc4c(C[C@H](NC(=O)C5(C(F)(F)F)CCN(CC(F)F)CC5)C(=O)O)cccc34)c3ccccc23)CC1 [Compound 916] |
| – | – | < 10 | > 1000 | O=C(O)[C@H](Cc1cccc2c(-c3ncc(CN4CCC4)c4ccccc34)cccc12)NC(=O)C1(C(F)(F)F)CCN(CC(F)(F)F)CC1 [Compound 919] |
| – | – | < 10 | 100 to 1000 | COc1ccc(CCN2CCC(F)CC2)c(OC)c1-c1cccc2c(C[C@H](NC(=O)C3(C(F)(F)F)CCN(CC(F)(F)F)CC3)C(=O)O)cccc12 [Compound 966] |
| – | – | < 10 | 100 to 1000 | COc1cc2c(c(OC)c1-c1cccc3c(C[C@H](NC(=O)C4(C(F)(F)F)CCN(CC(F)(F)F)CC4)C(=O)O)cccc13)CN(C1CCCCC1)CC2 [Compound 993] |
| – | – | < 10 | 100 to 1000 | COc1cccc(CCN2CCCCC2)c1-c1cccc2c(C[C@H](NC(=O)C3(C(F)(F)F)CCN(CC(F)(F)F)CC3)C(=O)O)cccc12 [Compound 956] |
| – | – | 10 to 100 | > 1000 | COc1ccc2c(c1-c1cccc3c(C[C@H](NC(=O)c4c(C)cccc4F)C(=O)O)cccc13)CCN(CC(F)F)C2 [Compound 1003] |
| – | – | < 10 | 100 to 1000 | COc1cccc(CCN2CCC(F)(F)CC2)c1-c1cccc2c(C[C@H](NC(=O)C3(C(F)(F)F)CCN(CC(F)F)CC3)C(=O)O)cccc12 [Compound 976] |
| – | – | < 10 | > 1000 | O=C(O)[C@H](Cc1cccc2c(-c3nccc4cccc(CCN5CCCCC5)c34)cccc12)NC(=O)C1(C(F)(F)F)CCN(CC(F)(F)F)CC1 [Compound 982] |
